One compound from patent US20040034107A1, “Ubiquinone Qn for the treatment of pain” (MSE Pharmazeutika GmbH, priority 1999, published 2004) can be followed below.

Assay [1] is described as follows: treatment of migraine pain with Q-10. Type of assay: in vivo. As for the experimental part: The substances to be used according to the invention can be preferably employed for the treatment of pain which is caused by migraine, dialysis, herpes zoster, cancer, diabetic neuropathy, or generalized pain conditions. The treatment can be done by administration in oral, parenteral, local, inhalative or intranasal form. The kind of administration must be adapted to the pain condition to be treated. […] Good results were achieved already with doses of about 20 mg.
Due to the low dose which is already effective for treating migraine pain, the ubiquinone Qn or its precursors are preferably used in the form of a spray, preferably a nasal spray, according to the invention.

The nature of assay [2]: local treatment of herpes zoster pain. Type of assay: in vivo. Conditions: local application in the form of creams or gels. An excerpt:
In the case of herpes zoster, even the local application of Q-10 in the form of creams or gels has even proven useful. It is critical that sufficient amounts of the ubiquinones or ubiquinone precursors arrive at the place in which the pain caused by disturbances of the signal transmission of the nerve system has its origin.

As to `COC1=C(OC)C(=O)C(C/C=C(\C)CC/C=C(\C)CC/C=C(\C)CC/C=C(\C)CC/C=C(\C)CC/C=C(\C)CC/C=C(\C)CC/C=C(\C)CC/C=C(\C)CCC=C(C)C)=C(C)C1=O` [Q-10, 2,3-dimethoxy-5-methyl-6-decaprenyl-1,4-benzoquinone], the treatment of migraine entry in assay [1] (oral administration, high doses) is listed as “only with very limited success”. In addition, in assay [1] (oral and nasal sprays, small amounts), the “elimination of migraine pain” value was “fast and effective elimination of migraine pain”. Also, the “results in migraine pain” value in assay [1] (sprays, doses of about 20 mg) was “Good results”. In addition, in assay [2], the “treatment of herpes zoster pain” value is “proven useful”.
